Data reported in patent US8575321B2, “Benzylbenzene derivatives and methods of use” (Theracos, Inc., priority 2007, dated 2013).

Columns and labels:
human SGLT1 = target: T1, human SGLT1 (Homo sapiens, UniProt P13866); experiment: Methyl-α-D-[U-14C]glucopyranoside uptake assay in COS-7 cells expressing human SGLT1; type: cell-based; settings: 2 h incubation
T1 construct: Full-length human SGLT1 cDNA on pDream2.1 expression vector; host or cells: COS-7 cells (American Type Culture Collection)
T1 sequence (P13866 1-664): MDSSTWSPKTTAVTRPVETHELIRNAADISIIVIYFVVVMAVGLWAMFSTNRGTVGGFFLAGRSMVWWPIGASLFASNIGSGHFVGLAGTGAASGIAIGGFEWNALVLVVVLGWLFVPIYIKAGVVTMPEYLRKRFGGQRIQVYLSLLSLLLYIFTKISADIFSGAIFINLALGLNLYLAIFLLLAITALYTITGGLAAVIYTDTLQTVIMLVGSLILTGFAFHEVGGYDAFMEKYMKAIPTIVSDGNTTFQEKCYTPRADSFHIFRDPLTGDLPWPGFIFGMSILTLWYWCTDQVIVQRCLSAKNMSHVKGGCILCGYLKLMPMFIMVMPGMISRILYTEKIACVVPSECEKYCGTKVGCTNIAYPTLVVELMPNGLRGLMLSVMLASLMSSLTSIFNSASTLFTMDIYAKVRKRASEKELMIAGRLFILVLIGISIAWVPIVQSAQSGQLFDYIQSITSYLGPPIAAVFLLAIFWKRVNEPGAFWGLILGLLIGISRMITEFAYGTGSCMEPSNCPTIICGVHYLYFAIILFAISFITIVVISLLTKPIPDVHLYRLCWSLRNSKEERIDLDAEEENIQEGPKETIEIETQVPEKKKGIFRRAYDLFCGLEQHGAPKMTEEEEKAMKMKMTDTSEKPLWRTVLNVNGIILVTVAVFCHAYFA
Description: Full-length human SGLT1 cDNA on pDream2.1 expression vector was obtained from GenScript Corporation and propagated in Escherichia coli strain DH5α using Luria-Bertani (LB) medium containing ampicillin. Plasmid DNA was isolated using the QIAGEN Plasmid Midi Kit (QIAGEN Inc.). […] Transfected cells were stored in DMEM containing 10% dimethyl sulfoxide (DMSO) at −80° C.
(§1) Cells expressing SGLT1 or SGLT2 were seeded on 96-well ScintiPlate scintillating plates (PerkinElmer, Inc.) in DMEM containing 10% FBS (1×10^5 cells per well in 100 μl medium) incubated at 37° C. under 5% CO2 for 48 h prior to the assay. Cells were washed twice with 150 μl of either sodium buffer (137 mM NaCl, 5.4 mM KCl, 2.8 mM CaCl2, 1.2 mM MgCl2, 10 mM tris(hydroxymethyl)aminomethane/N^2-hydroxyethylpiperazine-N′-ethanesulfonic acid [Tris/Hepes], pH 7.2) or sodium-free buffer (137 mM N-methyl-glucamine, 5.4 mM KCl, 2.8 mM CaCl2, 1.2 mM MgCl2, 10 mM Tris/Hepes, pH 7.2). Test compound in 50 μl each of sodium or sodium-free buffer containing 40 μCi/ml methyl-α-D-[U-^14C]glucopyranoside (Amersham Biosciences/GE Healthcare), either with (symbols in parentheses) or without (symbols without parentheses) 25% human serum, was added per well of a 96-well plate and incubated at 37° C. with shaking for either 2 h (SGLT1 assay) or 1.5 h (SGLT2 assay). Cells were washed twice with 150 μl of wash buffer (137 mM N-methylglucamine, 10 mM Tris/Hepes, pH 7.2) and methyl-α-D-[U-^14C]glucopyranoside uptake was quantitated using a TopCount scintillation counter (PerkinElmer, Inc.). Sodium-dependent glucopyranoside uptake was measured by subtracting the values obtained with sodium-free buffer from those obtained using sodium buffer (average of triplicate determinations).

human SGLT2 = target: T2, human SGLT2 (Homo sapiens, UniProt P31639); experiment: Methyl-α-D-[U-14C]glucopyranoside uptake assay in HEK293.ETN cells stably expressing human SGLT2; type: cell-based; settings: 1.5 h incubation
T2 construct: A full-length cDNA clone expressing human SGLT2
T2 sequence (P31639 1-672): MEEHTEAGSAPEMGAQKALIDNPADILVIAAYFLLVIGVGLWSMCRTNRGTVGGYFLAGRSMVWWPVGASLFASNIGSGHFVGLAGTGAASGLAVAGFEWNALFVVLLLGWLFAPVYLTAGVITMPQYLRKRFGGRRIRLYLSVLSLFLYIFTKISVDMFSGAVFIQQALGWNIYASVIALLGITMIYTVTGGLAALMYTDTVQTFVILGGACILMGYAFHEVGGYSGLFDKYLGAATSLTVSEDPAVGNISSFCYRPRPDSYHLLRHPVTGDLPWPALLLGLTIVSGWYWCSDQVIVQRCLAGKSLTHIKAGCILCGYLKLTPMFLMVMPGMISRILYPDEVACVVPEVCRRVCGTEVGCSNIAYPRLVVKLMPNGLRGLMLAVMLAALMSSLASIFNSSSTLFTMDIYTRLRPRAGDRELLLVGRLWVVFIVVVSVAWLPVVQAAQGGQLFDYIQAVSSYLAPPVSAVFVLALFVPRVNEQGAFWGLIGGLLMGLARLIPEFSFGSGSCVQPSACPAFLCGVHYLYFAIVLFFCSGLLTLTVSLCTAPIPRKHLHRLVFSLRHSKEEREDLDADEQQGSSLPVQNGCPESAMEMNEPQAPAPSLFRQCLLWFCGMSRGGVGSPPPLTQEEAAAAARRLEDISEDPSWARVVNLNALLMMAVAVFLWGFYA
Text: A full-length cDNA clone expressing human SGLT2 (GenScript Corporation) was subcloned into Hind III and Not I sites of pEAK15 expression vector. Clones harboring the cDNA inserts were identified by restriction analysis.
Plasmid containing human SGLT2 was linearized with Nsi I and purified by agarose gel electrophoresis. Using Lipofectamine 2000 Transfection Reagent (Invitrogen Corporation), DNA was transfected into HEK293.ETN cells and cultured in Dulbecco's Modified Eagle Medium (DMEM) containing 10% fetal bovine serum (FBS) at 37° C. under 5% CO2 for 24 h. Transfectants were selected in the same growth medium supplemented with puromycin (Invitrogen Corporation) for two weeks. Puromycin-resistant cells were recovered and seeded on a fresh 96-well plate (single cell per well) and cultured in the presence of puromycin until cells became confluent. Puromycin-resistant clones were evaluated for SGLT2 activity in the methyl-α-D-[U-^14C]glucopyranoside uptake assay described below.
as §1

[1] = incubation with 25% human serum (symbols in parentheses)
[2] = without human serum (symbols without parentheses)

IC50 (human SGLT1; [1]) [nM]	IC50 (human SGLT2; [1]) [nM]	IC50 (human SGLT1; [2]) [nM]	IC50 (human SGLT2; [2]) [nM]	SMILES
1000 to 10000	< 1000			OC[C@H]1O[C@@H](c2ccc(Cl)c(Cc3ccc(OCCOC4CCCC4)cc3)c2)[C@H](O)[C@@H](O)[C@@H]1O [Compound AD, (2S,3R,4R,5S,6R)-2-(4-chloro-3-(4-(2-(cyclopentyloxy)ethoxy)benzyl)phenyl)-6-(hydroxymethyl)tetrahydro-2H-pyran-3,4,5-triol]
> 10000	< 1000			OC[C@H]1O[C@@H](c2ccc(Cl)c(Cc3ccc(OCC#CC4CC4)cc3)c2)[C@H](O)[C@@H](O)[C@@H]1O [Compound AV, (2S,3R,4R,5S,6R)-2-(4-chloro-3-(4-(3-cyclopropylprop-2-ynyloxy)benzyl)phenyl)-6-(hydroxymethyl)tetrahydro-2H-pyran-3,4,5-triol]
> 10000	< 1000			OC[C@H]1O[C@@H](c2ccc(Cl)c(Cc3ccc(CCOC(F)F)cc3)c2)[C@H](O)[C@@H](O)[C@@H]1O [Compound BN, (2S,3R,4R,5S,6R)-2-(4-chloro-3-(4-(2-(difluoromethoxy)ethyl)benzyl)phenyl)-6-(hydroxymethyl)tetrahydro-2H-pyran-3,4,5-triol]
1000 to 10000	< 1000			OC[C@H]1O[C@@H](c2ccc(Cl)c(Cc3ccc(OCCOC4CC4)cc3)c2)[C@H](O)[C@@H](O)[C@@H]1O [Compound BQ, (2S,3R,4R,5S,6R)-2-(4-chloro-3-(4-(2-cyclopropoxyethoxy)benzyl)phenyl)-6-(hydroxymethyl)tetrahydro-2H-pyran-3,4,5-triol]
1000 to 10000	< 1000			OC[C@H]1O[C@@H](c2ccc(Cl)c(Cc3ccc(OCCOCC(F)(F)F)cc3)c2)[C@H](O)[C@@H](O)[C@@H]1O [Compound BT, (2S,3R,4R,5S,6R)-2-(4-chloro-3-(4-(2-(2,2,2-trifluoroethoxy)ethoxy)benzyl)phenyl)-6-(hydroxymethyl)tetrahydro-2H-pyran-3,4,5-triol]
> 10000	< 1000			OC[C@H]1O[C@@H](c2ccc(Cl)c(Cc3ccc(OCCOC4C=CCCC4)cc3)c2)[C@H](O)[C@@H](O)[C@@H]1O (stereo partly drawn) [Compound BW, (2S,3R,4R,5S,6R)-2-(4-chloro-3-(4-(2-(cyclohex-2-enyloxy)ethoxy)benzyl)phenyl)-6-(hydroxymethyl)tetrahydro-2H-pyran-3,4,5-triol]
> 10000	< 1000			OC[C@H]1O[C@@H](c2ccc(Cl)c(Cc3ccc(OC/C=C/C4CC4)cc3)c2)[C@H](O)[C@@H](O)[C@@H]1O [Compound BZ, (2S,3R,4R,5S,6R)-2-(4-chloro-3-(4-((E)-3-cyclopropylallyloxy)benzyl)phenyl)-6-(hydroxymethyl)tetrahydro-2H-pyran-3,4,5-triol]
		1000 to 10000	< 1000	OC[C@H]1O[C@@H](c2ccc(Cl)c(Cc3ccc(OCCOCCF)cc3)c2)[C@H](O)[C@@H](O)[C@@H]1O [Compound CC, (2S,3R,4R,5S,6R)-2-(4-chloro-3-(4-(2-(2-fluoroethoxy)ethoxy)benzyl)phenyl)-6-(hydroxymethyl)tetrahydro-2H-pyran-3,4,5-triol]
		1000 to 10000	< 1000	OC[C@H]1O[C@@H](c2ccc(Cl)c(Cc3ccc(OCCOCC(F)F)cc3)c2)[C@H](O)[C@@H](O)[C@@H]1O [Compound CF, (2S,3R,4R,5S,6R)-2-(4-chloro-3-(4-(2-(2,2-difluoroethoxy)ethoxy)benzyl)phenyl)-6-(hydroxymethyl)tetrahydro-2H-pyran-3,4,5-triol]
1000 to 10000	< 1000			OC[C@H]1O[C@@H](c2ccc(Cl)c(Cc3ccc(OCCOCCN4CCCC4)cc3)c2)[C@H](O)[C@@H](O)[C@@H]1O [Compound CH, (2S,3R,4R,5S,6R)-2-(4-chloro-3-(4-(2-(2-(pyrrolidin-1-yl)ethoxy)ethoxy)benzyl)phenyl)-6-(hydroxymethyl)tetrahydro-2H-pyran-3,4,5-triol]
1000 to 10000	< 1000			OC[C@H]1O[C@@H](c2ccc(Cl)c(Cc3ccc(OCCO[C@H]4CCOC4)cc3)c2)[C@H](O)[C@@H](O)[C@@H]1O [Compound CK, (2S,3R,4R,5S,6R)-2-(4-chloro-3-(4-(2-((S)-tetrahydrofuran-3-yloxy)ethoxy)benzyl)phenyl)-6-(hydroxymethyl)tetrahydro-2H-pyran-3,4,5-triol]
> 10000	< 1000			CC1(OCCOc2ccc(Cc3cc([C@@H]4O[C@H](CO)[C@@H](O)[C@H](O)[C@H]4O)ccc3Cl)cc2)CC1 [Compound CP, (2S,3R,4R,5S,6R)-2-(4-chloro-3-(4-(2-(1-methylcyclopropoxy)ethoxy)benzyl)phenyl)-6-(hydroxymethyl)tetrahydro-2H-pyran-3,4,5-triol]
> 10000	< 1000			OC[C@H]1O[C@@H](c2ccc(Cl)c(Cc3ccc(CCOC4CC4)cc3)c2)[C@H](O)[C@@H](O)[C@@H]1O [Compound CT, (2S,3R,4R,5S,6R)-2-(4-chloro-3-(4-(2-cyclopropoxyethyl)benzyl)phenyl)-6-(hydroxymethyl)tetrahydro-2H-pyran-3,4,5-triol]
> 10000	< 1000			OC[C@H]1O[C@@H](c2ccc(Cl)c(Cc3ccc(COC4CC4)cc3)c2)[C@H](O)[C@@H](O)[C@@H]1O [Compound CX, (2S,3R,4R,5S,6R)-2-(4-chloro-3-(4-(cyclopropoxymethyl)benzyl)phenyl)-6-(hydroxymethyl)tetrahydro-2H-pyran-3,4,5-triol]
1000 to 10000	< 1000			CC(COc1ccc(Cc2cc([C@@H]3O[C@H](CO)[C@@H](O)[C@H](O)[C@H]3O)ccc2Cl)cc1)OC1CC1 (stereo partly drawn) [Compound DC, (2S,3R,4R,5S,6R)-2-(4-chloro-3-(4-(2-cyclopropoxypropoxy)benzyl)phenyl)-6-(hydroxymethyl)tetrahydro-2H-pyran-3,4,5-triol]

SMILES	IC50 (human SGLT1; [1]) [nM]	IC50 (human SGLT2; [1]) [nM]	IC50 (human SGLT1; [2]) [nM]	IC50 (human SGLT2; [2]) [nM]
OC[C@H]1O[C@@H](c2ccc(Cl)c(Cc3ccc(OCCOC4CCC4)cc3)c2)[C@H](O)[C@@H](O)[C@@H]1O [Compound CM, (2S,3R,4R,5S,6R)-2-(4-chloro-3-(4-(2-cyclobutoxyethoxy)benzyl)phenyl)-6-(hydroxymethyl)tetrahydro-2H-pyran-3,4,5-triol]	> 10000	< 1000		
